Test system: E11.5 AGM cells
Test: Hematopoietic CFU and FACS assays on E11.5 AGM cells
Format: cell-based, mouse
Procedure: Pulsating blood vessels like conditions were stimulated in vitro using Flexcell FX-4000 machine. To analyze roles of pharmacological targets in regulating the endothelial-to-HSC transition, mouse embryo-derived AGM or whole mouse embryo were exposed ex vivo with biomechanical stretching, chemicals, or drugs. Next, hematopoietic colony formation assays were performed by incubating mouse AGM-derived cells in StemCell M3434 media for seven days. Serial transplantation of AGM-derived HSCs in lethally irradiated SJL mice were performed. The stem cell frequency upon biomechanical stretching was analyzed using a limiting dilution assay. To characterize properties of AGM-HSC-derived blood cells in primary transplants, percentage chimerism and reconstitution was measured using FACS, globin transcripts were analyzed using quantitative reverse transcriptase-PCR, myeloperoxidase amount was measured using PicoKine ELISA kit, TCR-β rearrangement was analyzed using PCR for TCR-β locus, pre-immune IG detection was analyzed using Thermo-Fisher Mouse Ig Isotyping kit, and delayed-type hypersensitivity was analyzed by injecting sheep RBC (Rockland Immunochemicals) in the footpad of pre-sensitized mice. E11.5 AGM were harvested from C57BL6/J Cd45.2 mouse embryos, and a single cell suspension of a three-embryo equivalent of cells was seeded on each well of a BioFlex six-well culture plate ([…]). We cultured cells overnight with the application of cyclic strain (Flexcell® FX4000TM Tension System) and/or treatment with chemical modulators (2-100 μM Yoda1, 1 μM Nanaomycin, 100 μM Gdcl3, 1 uM GsMT×4, 5-20 μM 4αPDD, 10 uM GSK205). Next, harvested cells were used to perform transplant, fluorescence-activated cell sorting (FACS) analysis, and colony-forming unit (CFU) assays. For CFU assays, cells from AGM explant or ex vivo were plated in MethoCult GF M3434 media (StemCell Technologies). Seven days after seeding, we analyzed their capacity to make granulocyte, erythroid, macrophage, megakaryocyte (GEMM), granulocyte macrophage (GM), granulocyte (G), macrophage (M), and erythroid (E) colonies.

SMILES: Clc1cccc(Cl)c1CSc1nnc(-c2cnccn2)s1 [Yoda1, 2-[5-[[(2,6-Dichlorophenyl)methyl]thio]-1,3,4-thiadiazol-2-yl]-pyrazine]
- GEMM formation (25 μM): enhances GEMM formation
- hematopoietic colony formation (endothelial-to-hematopoietic transition) (E11.5 AGM cells vs. control): stimulates the endothelial-to-hematopoietic transition

Reference: patent publication US20230041065A1, “METHODS FOR GENERATING HEMATOPOIETIC STEM CELLS” (The Brigham and Women`s Hospital, Inc., priority 2019, published 2023)
